Assay results reported in patent US7629169B2, “Methods for the production of platelet-derived growth factor-responsive neural precursor cells” (Stem Cell Therapeutics Corp., priority 2004, dated 2009).

Columns and labels:
[1] = system: PDGF-responsive neural precursors (PRPs) from dissociated E14 MGE/LGE; assay: Primary neurosphere generation from dissociated E14 ganglionic eminences; format: cell-based, mouse
Protocol: Cell culture. The culture medium (MHM) was composed of DMEM/F-12 (1:1) including HEPES buffer (5 mM), glucose (0.6%), sodium bicarbonate (3 mM), glutamine (2 mM), insulin (25 μg/ml), transferrin (100 μg/ml), progesterone (20 nM), putrescine (10 μM), and sodium selenite (30 nM; all from Sigma, St. Louis, Mo., except glutamine from Invitrogen, Carlsbad, Calif.). The lateral, medial, or both ganglionic eminences (LGE, MGE or both) were removed from Embryonic Day 14 (E14) mouse embryos and mechanically dissociated with a fire-polished Pasteur pipette in MHM. Cells were plated at a density of […] unless otherwise indicated.
For neurosphere generation, PDGF-AA (100 ng/ml; Peprotech, Rocky Hill, N.J.), PDGF-BB (100 ng/ml; Peprotech), EGF (20 ng/ml; Peprotech), FGF2 (20 ng/ml; R&D [Minneapolis, Minn.])+heparan sulfate (2 μg/ml; HS; R&D), SHH (2 ug/ml; R&D), cyclopamine (5 μM; Toronto Research Chemicals, North York, Ontario), and/or DMSO (0.1%; carrier) was added to the MHM. MHM used to generate neurospheres also contained 2% B27 (Invitrogen).
[…] is one of the earliest markers of OLPs, and signaling by PDGF-AA is required for the generation of most oligodendrocytes (Fruttiger et al., Development 126:457 (1999)). Increasing concentrations of PDGF-AA were used to determine whether stimulation of dissociated E14 medial and lateral ganglionic eminences. (MGE and LGE, respectively) results in generation of neurospheres. The neurosphere assay was used because manipulation of primary cells is minimal compared to the immunopanning procedures used to isolate O-2A progenitors.
The effect of brain-derived neurotrophic factor (BDNF), neurotrophin-3 (NT-3), and nerve growth factor (NGF) on PRPs was determined. Cells were cultured as previously reported (Chojnacki et al., J Neurosci 24(48):10888 2004) in the presence of various combinations of PDGF, brain-derived neurotrophic factor (BDNF), NT-3, nerve growth factor (NGF), and the effects on neurosphere generation characterized. MHM is the defined medium used in cultures without growth factor.

NSC = assay: FGF2-induced NSC proliferation; format: cell-based; details: 1 μM SU5402
[2] = system: PDGF-generated neurospheres; assay: Differentiation of primary PDGF-AA-generated neurospheres, immunocytochemistry; format: cell-based, mouse
[3] = system: PRPs (single primary neurospheres); assay: Self-renewal by single sphere dissociation (secondary neurospheres); format: cell-based; details: for secondary neurospheres per single primary PDGF-generated neurosphere: passaged into the named factor(s)
Protocol: Self-renewal capacity was examined by single sphere dissociation. Briefly, single 6 DIV neurospheres of equivalent size that were generated in the presence of EGF, PDGF-AA, or PDGF-AA and SHH were transferred into 96 well plates and mechanically dissociated. Dissociates were cultured in MHM supplemented with EGF, FGF2 (includes 2 μg/ml HS), FGF2 and SHH, PDGF-AA, PDGF-AA and SHH, PDGF-AA and FGF2, PDGF-AA and FGF2 and SHH, PDGF-AA and DMSO (0.1%), PDGF-AA and SHH, or PDGF-AA and FGF2 and cyclopamine. The number of secondary neurospheres generated was counted after 9 DIV.

PRPs = assay: GFP-expressing PDGF neurosphere dissociates plated on EGF-generated feeder layer; format: cell-based, mouse; details: PDGF with EGF feeder layer
From the text: To determine if extrinsic factors could promote self-renewal of PRPs, individual, 7 DIV, GFP-expressing, PDGF-generated neurospheres were isolated, dissociated in the presence of PDGF-AA, and differentiated on coverslips that had been plated 2 days earlier with or without 0.2×10^6 cells/ml of EGF-generated cells from dissociated primary EGF neurospheres. EGF-generated feeder cells had been allowed to differentiate for 2 days in the presence of 1% FBS. Plates were rinsed 3× with MHM prior to the addition of GFP-expressing, PDGF-generated dissociates. Numbers of adherent clones and cells per clone were assessed by GFP expression. All images were captured with a Photometrics Coolsnap digital camera (Tuscon, Ariz.) mounted on a Leica Microsystems DMIL inverted fluorescence microscope with Coolsnap V1.2.0 software.
However, these studies employed a defined culture media in which some factors required for self-renewal may be missing. To further study PRP self-renewal, primary PDGF neurospheres from the E14 MGEs of TgN(GFPU)5Nagy mice were grown for 7 DIV, individual neurospheres dissociated and transferred from single neurospheres onto poly-L-omithine coated coverslips that had been plated with or without 200,000 primary 7 DIV EGF-generated progeny 2 days earlier.

dissociated E14 MGEs = assay: Clonality test: GFP and CD1 E14 MGE cells co-cultured 1:1 in PDGF-AA; format: cell-based, mouse; details: 100 ng/ml PDGF-AA, 20,000 cells/ml, GFP:CD1 1:1
From the text: PDGF is also known to have chemotaxic effects on cortical NSCs (Forsberg-Nilsson et al., J Neurosci Res 53:521 (1998)), and thus it was possible that neurospheres generated under PDGF stimulation resulted from the directed migration of NSCs along the culture dish into clumps that resembled clonally-derived neurospheres. This possibility was studied, as previously described (Represa et al., Eur J Neurosci 14:452 (2001)), by culturing dissociated E14 MGEs from CD1 and TgN(GFPU)5Nagy (ubiquitous green fluorescent protein [GFP]-expressing) mice together, 1:1, at 20,000 cells/ml, and in the presence of 100 ng/ml of PDGF-AA. If cell clumping generates the majority of the neurospheres, then most neurospheres should contain both GFP- and non-GFP-expressing cells. However, 95±11% of the neurospheres were not chimeric for GFP expression (p<0.01; Tukey HSD; n=3) (FIGS. 1C-D), and there was no difference in the number of GFP- or non-GFP-expressing neurospheres produced (p>0.65; Tukey HSD; n=3) (FIG. 1D).

[4] = 6 DIV neurospheres differentiated 3 DIV

## Cc1c[nH]c(/C=C2\C(=O)Nc3ccccc32)c1CCC(=O)O [SU5402, reference compound]
[1]; 1 μM SU5402
  primary PDGF neurosphere formation: unaffected
NSC
  block of FGF2-induced NSC proliferation: 90%

## N[C@@H](Cc1cc(I)c(Oc2ccc(O)c(I)c2)c(I)c1)C(=O)O [T3, triiodothyronine]
[2]; 20 ng/ml T3, 2 DIV, vs 1% FBS
  increase in differentiation of oligodendrocytes (O4): 5 fold
[2]; 2 DIV
  MBP-only clones: increased the number of MBP-only clones
[2]; 2 DIV, vs 1% FBS, BMP-2, and T3 and BMP-2
  MBP-expressing cells produced per clone: significantly increased the number of MBP-expressing cells produced per clone
[2]; [4]
  GFAP-immunoreactive astrocytes per neurosphere: no astrocytes
  MBP-immunoreactive oligodendrocytes per neurosphere: 3.9±0.4

## CC1=C2C[C@H]3[C@@H](CC=C4C[C@@H](O)CC[C@@]43C)[C@@H]2CC[C@]12O[C@@H]1C[C@H](C)CN[C@H]1[C@H]2C [cyclopamine, reference compound]
[1]; 5 μM cyclopamine with 100 ng/ml PDGF-AA
  neurosphere size: smaller
[1]; 5 μM cyclopamine with 100 ng/ml PDGF-AA, MGE 10,000 cells/ml, vs PDGF-AA+DMSO
  reduction in number of PDGF-AA-generated neurospheres: 5 fold
[1]; 5 μM cyclopamine, phase-bright differentiating cells present
  non-specific toxic effect: likely not a result of a non-specific toxic effect
[3]; cyclopamine added to PDGF and FGF2
  secondary neurospheres per primary PDGF-generated neurosphere: 3±1

## EGF: epidermal growth factor, 20 ng/ml; Peprotech (NSDSECPLSHDGYCLHDGVCMYIEALDKYACNCVVGYIGERCQYRDLKWWELR; Epidermal growth factor; UniProt P01133 971-1023, looked up)
[3]
  secondary neurospheres per single primary PDGF-generated neurosphere: 3±1

## FGF2: fibroblast growth factor 2, 20 ng/ml, with heparan sulfate 2 μg/ml
[3]
  secondary neurospheres per single primary PDGF-generated neurosphere: 3±1
[3]; primary PDGF-generated neurospheres passaged into the named factor(s)
  secondary neurospheres / self-renewal compared with passage in PDGF: No increase in self-renewal

## PDGF-AA: platelet-derived growth factor AA, 100 ng/ml; Peprotech
PRPs
  adherent GFP-labeled clones: many clones of GFP-labeled cells that contained greater than 10 cells
[1]; 100 ng/ml PDGF-AA, dissociated E14 MGE and LGE, n=3
  neurospheres produced: 12±1 neurospheres per 10,000 plated cells
[1]; dissociated MGEs, SHH 2 μg/ml, n=8
  number of primary neurospheres generated: 60±9
[1]; increasing concentrations of PDGF-AA
  neurosphere production versus concentration: induced neurosphere production in a dose-dependent manner
Dissociated E14 MGEs
  neurospheres not chimeric for GFP expression: 95±11%
[3]; passaged into PDGF-AA
  secondary neurospheres per single primary EGF-generated neurosphere: 26±5
[3]
  secondary neurospheres per single primary PDGF-generated neurosphere: 1±1
